# Legend:
# Hepatitis C virus [1] = experiment: Inhibition of Hepatitis C virus subtype 1b J4L6 NS5B Cdelta21 RNA dependent RNA polymerase after 60 mins by liquid scintillation counting analysis; settings: J4L6, 1 h
# Hepatitis C virus [2] = experiment: Inhibition of Hepatitis C virus CON1 NS5B RNA dependent RNA polymerase after 2 hrs by scintillation counting analysis; parameters: species or system Hepacivirus hominis; settings: Con1, 2 h
SMILES,IC50 (Hepatitis C virus [1]),IC50 (Hepatitis C virus [2]),IC90 (Hepatitis C virus [2])
COc1c2c(cc3c1C(C#CCOc1cc4c5c(oc4cc1C(C)(C)C)CCCC5)N(C)CC3)OCO2 (centres undefined),38 µM,–,–
CCOC(=O)c1c(NC(=O)CSc2nnc3nc4[nH]c5ccccc5c4nn23)sc2c1CCN(C)C2,46.3 µM,–,–
CCOc1nc2cccc(C(=O)OC(C)OC(=O)OC3CCCCC3)c2n1Cc1ccc(-c2ccccc2-c2nn[nH]n2)cc1 (centres undefined) [CANDESARTAN CILEXETIL],–,14.2 µM,28 µM

# — ChEMBL document CHEMBL2385044, “Inhibitors for the hepatitis C virus RNA polymerase explored by SAR with advanced machine learning methods” (Bioorg Med Chem, 2013)
